Measurements as given in patent publication US7608564B2, “3-heterocyclyl-substituted benzoyl derivatives” (BASF Aktiengesellschaft, priority 1997, dated 2009).

## Cn1ncc(C(=O)c2ccc(S(C)(=O)=O)c(C3=NOCC3)c2Cl)c1O [3.35, 4-[2-Chloro-3-(4,5-dihydroisoxazol-3-yl)-4-methylsulfonyl-benzoyl]-5-hydroxy-1-methyl-1H-pyrazole]
  melting point: > 250 °C
